Data from US20130216666A1, “CASHEW NUT SHELL LIQUID WITH IMPROVED STABILITY” (IDEMITSU KOSAN CO., LTD., priority 2010, published 2013).
Where two headings read alike, the source gives them in different places.

Legend:
[1] = Inhibition of decarboxylation reaction in feed; details: 10% by weight in unheated CNSL, 80° C.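 Note: ethyl acetate extract of test feed analysed by reversed-phase C18 HPLC with absorbance detection at 280 nm, giving component composition.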
Method: The analysis was carried out under the conditions of a solvent composition of acetonitrile: water: acetic acid =80:20:1 (based on volume), a flow rate of 2 ml/min, a temperature of 25° C., and an absorbance of 280 nm.
Samples were taken from the beakers after 3 days and analyzed for composition by HPLC.
For HPLC analysis, soluble fractions of the test feed was extracted with ethyl acetate and then filtered and dried to concentrate it to 5 mg/ml.

[2] = Inhibition of decarboxylation reaction in unheated cashew nut shell liquid formulation (silica), citric acid; format: physicochemical; details: 80° C.; for Anacardic Acid 15:1 Composition (%) / Anacardic Acid 15:1 concentration / Anacardic Acid 15:2 Composition (%) / Anacardic Acid 15:2 concentration / Anacardic Acid 15:3 Composition (%) / Anacardic Acid 15:3 concentration / Cardanol 15:1 concentration / Cardanol 15:2 Composition (%) / Cardanol 15:2 concentration / Cardanol 15:3 Composition (%) / Cardanol 15:3 concentration / Cardanol 15:1 Composition (%): mixed with silica; for inhibition of the decarboxylation: formulation with silica, 6 days
From the text: 10 g of silica (Sipernat 22) was placed into each of beakers.

[3] = Inhibition of decarboxylation reaction when organic acid chelating agent was added (HPLC); format: physicochemical; details: 80° C.
[4] = 80° C.; for Anacardic Acid 15:1 Composition (%) / Anacardic Acid 15:1 concentration / Anacardic Acid 15:2 Composition (%) / Anacardic Acid 15:2 concentration / Anacardic Acid 15:3 Composition (%) / Anacardic Acid 15:3 concentration / Cardanol 15:1 Composition (%) / Cardanol 15:1 concentration / Cardanol 15:2 Composition (%) / Cardanol 15:2 concentration / Cardanol 15:3 Composition (%) / Cardanol 15:3 concentration: 10% by weight in unheated CNSL
[5] = Inhibition of decarboxylation reaction in unheated cashew nut shell liquid formulation (silica), phosphoric acid / phosphate; format: physicochemical; details: 80° C.; for Anacardic Acid 15:1 Composition (%) / Anacardic Acid 15:1 concentration / Anacardic Acid 15:2 Composition (%) / Anacardic Acid 15:2 concentration / Anacardic Acid 15:3 Composition (%) / Anacardic Acid 15:3 concentration / Cardanol 15:1 Composition (%) / Cardanol 15:1 concentration / Cardanol 15:2 Composition (%) / Cardanol 15:2 concentration / Cardanol 15:3 Composition (%) / Cardanol 15:3 concentration: 10% by weight in unheated CNSL, mixed with silica
Method: 10 g of silica (Sipernat 22) was placed into each of beakers. […] The sodium dihydrogen phosphate was added as an aqueous solution.

[6] = silica composition 1% by weight in feed, Day 0
[7] = silica composition 1% by weight in feed, Day 3
[8] = 2% by weight in unheated CNSL, Day 0
[9] = 2% by weight in unheated CNSL, Day 6
[10] = 10% by weight in unheated CNSL, Day 0
[11] = 10% by weight in unheated CNSL, Day 6

## O=C(O)CC(O)(CC(=O)O)C(=O)O [Citric Acid, citric acid]
[1]; in feed, 3 days
  stability of the shell liquid in the feed (progress of the decarboxylation): stable in the feed without progress of the decarboxylation
[1]; [6]
  Anacardic Acid 15:1 Composition (%): 40.28%
  Anacardic Acid 15:1 concentration: 363.92 ppm
  Anacardic Acid 15:2 Composition (%): 13.76%
  Anacardic Acid 15:2 concentration: 124.28 ppm
  Anacardic Acid 15:3 Composition (%): 33.11%
  Anacardic Acid 15:3 concentration: 299.13 ppm
  Cardanol 15:1 concentration: 48.69 ppm
  Cardanol 15:2 Composition (%): 2.31%
  Cardanol 15:2 concentration: 20.83 ppm
  Cardanol 15:3 Composition (%): 5.15%
  Cardanol 15:3 concentration: 46.52 ppm
[1]; [7]
  Anacardic Acid 15:1 Composition (%): 38.54%
  Anacardic Acid 15:1 concentration: 309.33 ppm
  Anacardic Acid 15:2 Composition (%): 13.16%
  Anacardic Acid 15:2 concentration: 105.64 ppm
  Anacardic Acid 15:3 Composition (%): 31.68%
  Anacardic Acid 15:3 concentration: 254.26 ppm
  Cardanol 15:1 Composition (%): 6.98%
  Cardanol 15:1 concentration: 56.00 ppm
  Cardanol 15:2 Composition (%): 2.98%
  Cardanol 15:2 concentration: 23.95 ppm
  Cardanol 15:3 Composition (%): 6.67%
  Cardanol 15:3 concentration: 53.50 ppm
[2]; [8]
  Anacardic Acid 15:1 Composition (%): 39.36%
  Anacardic Acid 15:1 concentration: 161.67 ppm
  Anacardic Acid 15:2 Composition (%): 14.07%
  Anacardic Acid 15:2 concentration: 57.80 ppm
  Anacardic Acid 15:3 Composition (%): 32.64%
  Anacardic Acid 15:3 concentration: 134.06 ppm
  Cardanol 15:1 concentration: 23.41 ppm
  Cardanol 15:2 Composition (%): 2.78%
  Cardanol 15:2 concentration: 11.43 ppm
  Cardanol 15:3 Composition (%): 5.44%
  Cardanol 15:3 concentration: 22.36 ppm
[2]; [9]
  Anacardic Acid 15:1 Composition (%): 32.92%
  Anacardic Acid 15:1 concentration: 121.26 ppm
  Anacardic Acid 15:2 Composition (%): 11.63%
  Anacardic Acid 15:2 concentration: 42.84 ppm
  Anacardic Acid 15:3 Composition (%): 26.37%
  Anacardic Acid 15:3 concentration: 97.14 ppm
  Cardanol 15:1 Composition (%): 12.91%
  Cardanol 15:1 concentration: 47.56 ppm
  Cardanol 15:2 Composition (%): 4.67%
  Cardanol 15:2 concentration: 17.19 ppm
  Cardanol 15:3 Composition (%): 11.49%
  Cardanol 15:3 concentration: 42.34 ppm
[2]; [10]
  Anacardic Acid 15:1 Composition (%): 39.73%
  Anacardic Acid 15:1 concentration: 151.81 ppm
  Anacardic Acid 15:2 Composition (%): 14.05%
  Anacardic Acid 15:2 concentration: 53.68 ppm
  Anacardic Acid 15:3 Composition (%): 32.47%
  Anacardic Acid 15:3 concentration: 124.09 ppm
  Cardanol 15:1 concentration: 21.54 ppm
  Cardanol 15:2 Composition (%): 2.79%
  Cardanol 15:2 concentration: 10.67 ppm
  Cardanol 15:3 Composition (%): 5.32%
  Cardanol 15:3 concentration: 20.34 ppm
[2]; [11]
  Anacardic Acid 15:1 Composition (%): 38.12%
  Anacardic Acid 15:1 concentration: 136.67 ppm
  Anacardic Acid 15:2 Composition (%): 14.58%
  Anacardic Acid 15:2 concentration: 52.15 ppm
  Anacardic Acid 15:3 Composition (%): 30.40%
  Anacardic Acid 15:3 concentration: 108.99 ppm
  Cardanol 15:1 Composition (%): 7.19%
  Cardanol 15:1 concentration: 25.79 ppm
  Cardanol 15:2 Composition (%): 3.19%
  Cardanol 15:2 concentration: 11.43 ppm
  Cardanol 15:3 Composition (%): 6.55%
  Cardanol 15:3 concentration: 23.49 ppm
[2]; 2% by weight
  inhibition of the decarboxylation: moderate inhibition
[2]; 10% by weight
  inhibition of the decarboxylation: significant inhibition
[3]; [8]
  Anacardic Acid 15:1 Composition (%): 39.78%
  Anacardic Acid 15:1 concentration: 332.79 ppm
  Anacardic Acid 15:2 Composition (%): 14.23%
  Anacardic Acid 15:2 concentration: 119.04 ppm
  Anacardic Acid 15:3 Composition (%): 33.01%
  Anacardic Acid 15:3 concentration: 276.11 ppm
  Cardanol 15:1 concentration: 45.23 ppm
  Cardanol 15:2 Composition (%): 2.32%
  Cardanol 15:2 concentration: 19.40 ppm
  Cardanol 15:3 Composition (%): 5.25%
  Cardanol 15:3 concentration: 43.93 ppm
[3]; [9]
  Anacardic Acid 15:1 Composition (%): 32.78%
  Anacardic Acid 15:1 concentration: 281.46 ppm
  Anacardic Acid 15:2 Composition (%): 11.39%
  Anacardic Acid 15:2 concentration: 97.81 ppm
  Anacardic Acid 15:3 Composition (%): 26.31%
  Anacardic Acid 15:3 concentration: 225.94 ppm
  Cardanol 15:1 concentration: 111.23 ppm
  Cardanol 15:2 Composition (%): 4.84%
  Cardanol 15:2 concentration: 41.54 ppm
  Cardanol 15:3 Composition (%): 11.72%
  Cardanol 15:3 concentration: 100.64 ppm
[3]; [10]
  Anacardic Acid 15:1 Composition (%): 39.28%
  Anacardic Acid 15:1 concentration: 248.49 ppm
  Anacardic Acid 15:2 Composition (%): 14.38%
  Anacardic Acid 15:2 concentration: 90.98 ppm
  Anacardic Acid 15:3 Composition (%): 33.19%
  Anacardic Acid 15:3 concentration: 209.99 ppm
  Cardanol 15:1 concentration: 34.38 ppm
  Cardanol 15:2 Composition (%): 2.45%
  Cardanol 15:2 concentration: 15.47 ppm
  Cardanol 15:3 Composition (%): 5.27%
  Cardanol 15:3 concentration: 33.37 ppm
[3]; [11]
  Anacardic Acid 15:1 Composition (%): 38.07%
  Anacardic Acid 15:1 concentration: 273.99 ppm
  Anacardic Acid 15:2 Composition (%): 13.78%
  Anacardic Acid 15:2 concentration: 99.14 ppm
  Anacardic Acid 15:3 Composition (%): 31.48%
  Anacardic Acid 15:3 concentration: 226.51 ppm
  Cardanol 15:1 concentration: 49.53 ppm
  Cardanol 15:2 Composition (%): 3.30%
  Cardanol 15:2 concentration: 23.72 ppm
  Cardanol 15:3 Composition (%): 6.49%
  Cardanol 15:3 concentration: 46.72 ppm

## O=P([O-])(O)O.[Na+] [Sodium Dihydrogen Phosphate, sodium dihydrogen phosphate]
[4]; Day 0
  Anacardic Acid 15:1 Composition (%): 39.93%
  Anacardic Acid 15:1 concentration: 1103 ppm
  Anacardic Acid 15:2 Composition (%): 14.10%
  Anacardic Acid 15:2 concentration: 389 ppm
  Anacardic Acid 15:3 Composition (%): 32.43%
  Anacardic Acid 15:3 concentration: 896 ppm
  Cardanol 15:1 Composition (%): 5.46%
  Cardanol 15:1 concentration: 151 ppm
  Cardanol 15:2 Composition (%): 2.52%
  Cardanol 15:2 concentration: 70 ppm
  Cardanol 15:3 Composition (%): 5.55%
  Cardanol 15:3 concentration: 153 ppm
[4]; Day 3
  Anacardic Acid 15:1 Composition (%): 30.94%
  Anacardic Acid 15:1 concentration: 964 ppm
  Anacardic Acid 15:2 Composition (%): 10.81%
  Anacardic Acid 15:2 concentration: 337 ppm
  Anacardic Acid 15:3 Composition (%): 24.87%
  Anacardic Acid 15:3 concentration: 774 ppm
  Cardanol 15:1 Composition (%): 14.32%
  Cardanol 15:1 concentration: 446 ppm
  Cardanol 15:2 Composition (%): 5.95%
  Cardanol 15:2 concentration: 185 ppm
  Cardanol 15:3 Composition (%): 13.10%
  Cardanol 15:3 concentration: 408 ppm
[4]; 10% by weight, three days
  inhibition of the decarboxylation: moderate inhibition
[5]; Day 0
  Anacardic Acid 15:1 Composition (%): 40.20%
  Anacardic Acid 15:1 concentration: 563.78 ppm
  Anacardic Acid 15:2 Composition (%): 14.00%
  Anacardic Acid 15:2 concentration: 196.40 ppm
  Anacardic Acid 15:3 Composition (%): 32.21%
  Anacardic Acid 15:3 concentration: 451.72 ppm
  Cardanol 15:1 Composition (%): 5.74%
  Cardanol 15:1 concentration: 80.56 ppm
  Cardanol 15:2 Composition (%): 2.45%
  Cardanol 15:2 concentration: 34.39 ppm
  Cardanol 15:3 Composition (%): 5.39%
  Cardanol 15:3 concentration: 75.66 ppm
[5]; Day 3
  Anacardic Acid 15:1 Composition (%): 32.90%
  Anacardic Acid 15:1 concentration: 502.26 ppm
  Anacardic Acid 15:2 Composition (%): 11.28%
  Anacardic Acid 15:2 concentration: 172.11 ppm
  Anacardic Acid 15:3 Composition (%): 25.93%
  Anacardic Acid 15:3 concentration: 395.86 ppm
  Cardanol 15:1 Composition (%): 13.16%
  Cardanol 15:1 concentration: 200.81 ppm
  Cardanol 15:2 Composition (%): 5.23%
  Cardanol 15:2 concentration: 79.82 ppm
  Cardanol 15:3 Composition (%): 11.50%
  Cardanol 15:3 concentration: 175.60 ppm
[5]; formulation with silica, 10% by weight, 3 days
  inhibition of the decarboxylation: moderate inhibition
